This note sets out measurements from publication PMC5218480 (PLoS ONE, 2017).

SMILES strings stand for the structures.

The test system of this assay is MV-4-11 cells. Kind of assay: Gene expression microarray analysis (Affymetrix PrimeView) and GSEA. The assay is classed as cell-based, human. Also noted: RFU PODN (11730768_x_at) / Fold change /veh PODN (11730768_x_at) / RFU LINC00158 (11744669_a_at) / Fold change /veh LINC00158 (11744669_a_at) / RFU DUSP10 (11751237_a_at) / Fold change /veh DUSP10 (11751237_a_at) / RFU ID3 (11757404_x_at) / Fold change /veh ID3 (11757404_x_at) / RFU PLEKHG5 (11737974_s_at) / Fold change /veh PLEKHG5 (11737974_s_at) / RFU LRRC4B (11730491_at) / Fold change /veh LRRC4B (11730491_at) / RFU GIMAP4 (11747438_a_at) / Fold change /veh GIMAP4 (11747438_a_at) / RFU KRT8 (11758183_x_at) / Fold change /veh KRT8 (11758183_x_at) / RFU CNN1 (11734310_a_at) / Fold change /veh CNN1 (11734310_a_at) / RFU VPS37D (11726825_at) / Fold change /veh VPS37D (11726825_at) / RFU C10orf10 (11716522_x_at) / Fold change /veh C10orf10 (11716522_x_at) / RFU KIR2DL2 /// KIR2DL4 /// KIR2DL5A /// KIR2DL5B /// KIR2DS1 /// KIR2DS2 /// KIR2DS3 /// KIR2DS4 /// KIR3DL3 /// KIR3DL3 /// KIR3DS1 (11738374_at) / Fold change /veh KIR2DL2 /// KIR2DL4 /// KIR2DL5A /// KIR2DL5B /// KIR2DS1 /// KIR2DS2 /// KIR2DS3 /// KIR2DS4 /// KIR3DL3 /// KIR3DL3 /// KIR3DS1 (11738374_at) / RFU C1QL1 (11718748_at) / Fold change /veh C1QL1 (11718748_at) / RFU TMPRSS4 (11747572_a_at) / Fold change /veh TMPRSS4 (11747572_a_at) / RFU HAMP (11756126_x_at) / Fold change /veh HAMP (11756126_x_at) / RFU RNFT2 (11725882_a_at) / Fold change /veh RNFT2 (11725882_a_at) / RFU NR4A2 (11747474_a_at) / Fold change /veh NR4A2 (11747474_a_at) / RFU ABCC12 (11746883_a_at) / Fold change /veh ABCC12 (11746883_a_at) / RFU TMEM136 (11760407_x_at) / Fold change /veh TMEM136 (11760407_x_at) / RFU CLDN22 /// WWC2 (11732394_at) / Fold change /veh CLDN22 /// WWC2 (11732394_at) / RFU HLA-DPB1 (11760878_x_at) / Fold change /veh HLA-DPB1 (11760878_x_at) / RFU SPINT1 (11716480_a_at) / Fold change /veh SPINT1 (11716480_a_at) / RFU GAP43 (11754022_s_at) / Fold change /veh GAP43 (11754022_s_at) / RFU A4GNT (11735810_at) / Fold change /veh A4GNT (11735810_at) / RFU PRB3 (11715151_x_at) / Fold change /veh PRB3 (11715151_x_at) / RFU TUBB4B (11761932_at) / Fold change /veh TUBB4B (11761932_at) / RFU CAPN14 (11732068_a_at) / Fold change /veh CAPN14 (11732068_a_at) / RFU TMCC2 (11721928_a_at) / Fold change /veh TMCC2 (11721928_a_at) / RFU IRGQ (11745062_a_at) / Fold change /veh IRGQ (11745062_a_at) / RFU FAM174B (11720279_a_at) / Fold change /veh FAM174B (11720279_a_at) / RFU TMPRSS4 (11748680_a_at) / Fold change /veh TMPRSS4 (11748680_a_at) / RFU FAM212B (11763350_a_at) / Fold change /veh FAM212B (11763350_a_at) / RFU PLEKHG5 (11743358_a_at) / Fold change /veh PLEKHG5 (11743358_a_at) / RFU ZSCAN30 (11745921_a_at) / Fold change /veh ZSCAN30 (11745921_a_at) / RFU CMKLR1 (11741424_a_at) / Fold change /veh CMKLR1 (11741424_a_at) / RFU LOC101060620 /// MAPK8IP1 (11723275_at) / Fold change /veh LOC101060620 /// MAPK8IP1 (11723275_at) / RFU SPTSSB (11747773_x_at) / Fold change /veh SPTSSB (11747773_x_at) / RFU PRSS12 (11739890_at) / Fold change /veh PRSS12 (11739890_at) / RFU BIN1 (11741810_x_at) / Fold change /veh BIN1 (11741810_x_at) / RFU WNT11 (11732464_a_at) / Fold change /veh WNT11 (11732464_a_at) / RFU C10orf10 (11716521_a_at) / Fold change /veh C10orf10 (11716521_a_at) / RFU C5orf56 (11738089_at) / Fold change /veh C5orf56 (11738089_at) / RFU CYB561 (11721691_x_at) / Fold change /veh CYB561 (11721691_x_at) / RFU ANKRD19P (11752326_a_at) / Fold change /veh ANKRD19P (11752326_a_at) / RFU OR2T12 /// OR2T33 /// OR2T8 (11738714_s_at) / Fold change /veh OR2T12 /// OR2T33 /// OR2T8 (11738714_s_at) / RFU VCAN (11748164_a_at) / Fold change /veh VCAN (11748164_a_at) / RFU JSRP1 (11732532_at) / Fold change /veh JSRP1 (11732532_at) / RFU KRTAP10-11 (11738290_x_at) / Fold change /veh KRTAP10-11 (11738290_x_at) / RFU MYO3A (11730013_a_at) / Fold change /veh MYO3A (11730013_a_at) / RFU EBF3 (11725865_a_at) / Fold change /veh EBF3 (11725865_a_at) / RFU CAMK2N1 (11719241_x_at) / Fold change /veh CAMK2N1 (11719241_x_at) / RFU C5orf56 (11738088_a_at) / Fold change /veh C5orf56 (11738088_a_at) / RFU OLFML3 (11715873_a_at) / Fold change /veh OLFML3 (11715873_a_at) / RFU LOC100653217 /// NTM (11731650_a_at) / Fold change /veh LOC100653217 /// NTM (11731650_a_at) / RFU MAPK11 (11762145_a_at) / Fold change /veh MAPK11 (11762145_a_at) / RFU FIZ1 (11724087_x_at) / Fold change /veh FIZ1 (11724087_x_at) / RFU OASL (11726364_x_at) / Fold change /veh OASL (11726364_x_at) / RFU SOX15 (11748057_x_at) / Fold change /veh SOX15 (11748057_x_at) / RFU CD79A (11719716_a_at) / Fold change /veh CD79A (11719716_a_at) / RFU HIST1H1D (11736915_at) / Fold change /veh HIST1H1D (11736915_at) / RFU CASKIN2 (11723855_a_at) / Fold change /veh CASKIN2 (11723855_a_at) / RFU LOC730098 (11760151_x_at) / Fold change /veh LOC730098 (11760151_x_at) / RFU OR4N2 (11742367_at) / Fold change /veh OR4N2 (11742367_at) / RFU PRRT2 (11749266_a_at) / Fold change /veh PRRT2 (11749266_a_at) / RFU SNX32 (11753110_a_at) / Fold change /veh SNX32 (11753110_a_at) / RFU CDHR5 (11726645_a_at) / Fold change /veh CDHR5 (11726645_a_at) / RFU RCAN1 (11760418_a_at) / Fold change /veh RCAN1 (11760418_a_at) / RFU FAM167A (11723789_a_at) / Fold change /veh FAM167A (11723789_a_at) / RFU FAM26E (11764081_at) / Fold change /veh FAM26E (11764081_at) / RFU ISYNA1 (11749810_s_at) / Fold change /veh ISYNA1 (11749810_s_at) / RFU ACY1 (11761880_at) / Fold change /veh ACY1 (11761880_at) / RFU 11764098_at / Fold change /veh 11764098_at / RFU SAMD14 (11745864_x_at) / Fold change /veh SAMD14 (11745864_x_at) / RFU NPB (11741838_a_at) / Fold change /veh NPB (11741838_a_at) / RFU TMPRSS6 (11731388_a_at) / Fold change /veh TMPRSS6 (11731388_a_at) / RFU KRTAP10-2 (11738614_at) / Fold change /veh KRTAP10-2 (11738614_at) / RFU ARHGAP8 /// PRR5-ARHGAP8 (11727945_x_at) / Fold change /veh ARHGAP8 /// PRR5-ARHGAP8 (11727945_x_at) / RFU KRTAP5-7 /// NADSYN1 (11734609_at) / Fold change /veh KRTAP5-7 /// NADSYN1 (11734609_at) / RFU RASL12 (11751679_a_at) / Fold change /veh RASL12 (11751679_a_at) / RFU CDKN2B (11736163_a_at) / Fold change /veh CDKN2B (11736163_a_at) / RFU PRF1 (11729649_at) / Fold change /veh PRF1 (11729649_at) / RFU, ZNF638 /// ZNF638-IT1 / Fold change vs veh, ZNF638 /// ZNF638-IT1 / RFU, PANK3 / Fold change vs veh, PANK3 / RFU, SH3YL1 / Fold change vs veh, SH3YL1 / RFU, ZEB2 / Fold change vs veh, ZEB2 / RFU, NRIP1 / Fold change vs veh, NRIP1 / RFU, PTTG1IP / Fold change vs veh, PTTG1IP / RFU, CAPN2 / Fold change vs veh, CAPN2 / RFU, MED14 / Fold change vs veh, MED14 / RFU, SNORA58 / Fold change vs veh, SNORA58 / RFU, C1orf63 / Fold change vs veh, C1orf63 / RFU, LRRFIP1 / Fold change vs veh, LRRFIP1 / RFU, NDUFAF7 / Fold change vs veh, NDUFAF7 / RFU, SLC12A2 / Fold change vs veh, SLC12A2 / RFU, IBTK / Fold change vs veh, IBTK / RFU, ESF1 / Fold change vs veh, ESF1 / Fold change vs veh, TMEM50B / RFU, TAOK1 / Fold change vs veh, TAOK1 / RFU, ACBD3 / Fold change vs veh, ACBD3 / RFU, TMA16 / Fold change vs veh, TMA16 / RFU, RWDD3 / Fold change vs veh, RWDD3 / RFU, BCAT1 / Fold change vs veh, BCAT1 / RFU, EDEM3 / Fold change vs veh, EDEM3 / RFU, TMEM33 / Fold change vs veh, TMEM33 / RFU, WDR75 / Fold change vs veh, WDR75 / RFU, AHCTF1 / Fold change vs veh, AHCTF1 / RFU, TFRC / Fold change vs veh, TFRC / RFU, ZDHHC17 / Fold change vs veh, ZDHHC17 / RFU, NOM1 / Fold change vs veh, NOM1 / RFU, ARL8B / Fold change vs veh, ARL8B / RFU, ZBTB11 / Fold change vs veh, ZBTB11 / RFU, TAMM41 / Fold change vs veh, TAMM41 / RFU, KIAA1704 /// LOC100996395 / Fold change vs veh, KIAA1704 /// LOC100996395 / RFU, ING1 / Fold change vs veh, ING1 / RFU, TRMT61B / Fold change vs veh, TRMT61B / RFU, FUBP3 / Fold change vs veh, FUBP3 / RFU, TP53 / Fold change vs veh, TP53 / RFU, TNKS2 / Fold change vs veh, TNKS2 / RFU, ZFP14 / Fold change vs veh, ZFP14 / RFU, ACTR2 / Fold change vs veh, ACTR2 / RFU, PPP3R1 / Fold change vs veh, PPP3R1 / RFU, PIK3R1 / Fold change vs veh, PIK3R1 / RFU, HNRNPA1 / Fold change vs veh, HNRNPA1 / RFU, RNF170 / Fold change vs veh, RNF170 / RFU, ZNF28 / Fold change vs veh, ZNF28 / RFU, RNGTT / Fold change vs veh, RNGTT / RFU, OGT / Fold change vs veh, OGT / RFU, BRD1 / Fold change vs veh, BRD1 / RFU, MARS / Fold change vs veh, MARS / RFU, ZNF655 / Fold change vs veh, ZNF655 / RFU, FAHD1 / Fold change vs veh, FAHD1 / RFU, BDP1 / Fold change vs veh, BDP1 / RFU, LRRCC1 / Fold change vs veh, LRRCC1 / RFU, ARID1A / Fold change vs veh, ARID1A / RFU, ZNF146 / Fold change vs veh, ZNF146 / RFU, ZNF330 / Fold change vs veh, ZNF330 / RFU, GPN3 / Fold change vs veh, GPN3 / RFU, C9orf123 / Fold change vs veh, C9orf123 / RFU, N4BP2L2 / Fold change vs veh, N4BP2L2 / RFU, ARFIP1 / Fold change vs veh, ARFIP1 / RFU, FAM179B / Fold change vs veh, FAM179B / RFU, BCL10 / Fold change vs veh, BCL10 / RFU, UHRF1BP1L / Fold change vs veh, UHRF1BP1L / RFU, BET1 / Fold change vs veh, BET1 / RFU, CNOT2 / Fold change vs veh, CNOT2 / RFU, ZNF268 / Fold change vs veh, ZNF268 / Fold change vs veh, ZNF507 / RFU, DGCR2 / Fold change vs veh, DGCR2 / RFU, WDSUB1 / Fold change vs veh, WDSUB1 / Fold change vs veh, HSP90B1 /// MIR3652 / RFU, ADSS / Fold change vs veh, ADSS / RFU, GK / Fold change vs veh, GK / RFU, ZNF148 / Fold change vs veh, ZNF148 / RFU, TAF9 / Fold change vs veh, TAF9 / RFU, SLC1A5 / Fold change vs veh, SLC1A5 / RFU, SLMO2 / Fold change vs veh, SLMO2 / RFU, ABCC4 / Fold change vs veh, ABCC4 / RFU, LOC101060439 /// RAP1B / Fold change vs veh, LOC101060439 /// RAP1B / RFU, RFX7 / Fold change vs veh, RFX7 / RFU, GTPBP10 / Fold change vs veh, GTPBP10 / RFU, CNEP1R1 / Fold change vs veh, CNEP1R1 / RFU, BIVM-ERCC5 /// ERCC5 / Fold change vs veh, BIVM-ERCC5 /// ERCC5 / RFU, ILF3 / Fold change vs veh, ILF3 / RFU 11762660_at / Fold change /veh 11762660_at / RFU VCAN (11757783_s_at) / Fold change /veh VCAN (11757783_s_at) / RFU DDX43 (11728927_at) / Fold change /veh DDX43 (11728927_at) / RFU KRT8 (11758188_x_at) / Fold change /veh KRT8 (11758188_x_at) / RFU NKD1 (11759106_at) / Fold change /veh NKD1 (11759106_at) / RFU SRD5A1 (11742802_a_at) / Fold change /veh SRD5A1 (11742802_a_at) / RFU TPSAB1 /// TPSB2 (11721975_s_at) / Fold change /veh TPSAB1 /// TPSB2 (11721975_s_at) / RFU GSTM3 (11746129_a_at) / Fold change /veh GSTM3 (11746129_a_at) / RFU IL23R (11737362_x_at) / Fold change /veh IL23R (11737362_x_at) / RFU TMEM51 (11727254_a_at) / Fold change /veh TMEM51 (11727254_a_at) / RFU PIWIL2 (11732686_x_at) / Fold change /veh PIWIL2 (11732686_x_at) / RFU ORM1 (11744905_x_at) / Fold change /veh ORM1 (11744905_x_at) / RFU CCDC152 (11743942_at) / Fold change /veh CCDC152 (11743942_at) / RFU ECM1 (11717891_a_at) / Fold change /veh ECM1 (11717891_a_at) / RFU IL23R (11748794_a_at) / Fold change /veh IL23R (11748794_a_at) / RFU TNFAIP8L3 (11732012_x_at) / Fold change /veh TNFAIP8L3 (11732012_x_at) / RFU MBOAT4 (11741988_at) / Fold change /veh MBOAT4 (11741988_at) / RFU 11764193_at / Fold change /veh 11764193_at / RFU TMEM53 (11763286_at) / Fold change /veh TMEM53 (11763286_at) / RFU MAGEB2 (11727129_at) / Fold change /veh MAGEB2 (11727129_at) / RFU TMEM200A (11744735_a_at) / Fold change /veh TMEM200A (11744735_a_at) / RFU CCDC152 (11751479_a_at) / Fold change /veh CCDC152 (11751479_a_at) / RFU FAM211A (11726209_a_at) / Fold change /veh FAM211A (11726209_a_at) / RFU RGS16 (11746705_a_at) / Fold change /veh RGS16 (11746705_a_at) / RFU VCAN (11755009_s_at) / Fold change /veh VCAN (11755009_s_at) / RFU RHOB (11743442_s_at) / Fold change /veh RHOB (11743442_s_at) / RFU RGS16 (11720943_a_at) / Fold change /veh RGS16 (11720943_a_at) / RFU RGS16 (11720944_at) / Fold change /veh RGS16 (11720944_at) / RFU, VPS4B / Fold change vs veh, VPS4B / RFU, CREB1 / Fold change vs veh, CREB1 / RFU, DNAJC13 / Fold change vs veh, DNAJC13 / RFU, GNAQ / Fold change vs veh, GNAQ / RFU, CDK5R1 / Fold change vs veh, CDK5R1 / RFU, ZRANB3 / Fold change vs veh, ZRANB3 / RFU, CUL4A / Fold change vs veh, CUL4A / RFU, CCNY / Fold change vs veh, CCNY / RFU, UFL1 / Fold change vs veh, UFL1 / RFU, COG3 / Fold change vs veh, COG3 / RFU, DIAPH2 / Fold change vs veh, DIAPH2 / RFU, SKA2 / Fold change vs veh, SKA2 / RFU, AFF3 / Fold change vs veh, AFF3 / RFU, LMF1 / Fold change vs veh, LMF1 / RFU, IPO11 / Fold change vs veh, IPO11 / RFU, DFFB / Fold change vs veh, DFFB / RFU, FOXP1 / Fold change vs veh, FOXP1 / RFU, CARD8 / Fold change vs veh, CARD8 / RFU, STRN3 / Fold change vs veh, STRN3 / RFU, ADK / Fold change vs veh, ADK / RFU, RASSF2 / Fold change vs veh, RASSF2 / RFU, WIPF1 / Fold change vs veh, WIPF1 / RFU, LARP1B / Fold change vs veh, LARP1B / RFU, RASA1 / Fold change vs veh, RASA1 / RFU, RB1 / Fold change vs veh, RB1 / RFU, PPFIA1 / Fold change vs veh, PPFIA1 / RFU, MAT2A / Fold change vs veh, MAT2A / RFU, CCT5 / Fold change vs veh, CCT5 / RFU, WDR92 / Fold change vs veh, WDR92 / RFU, CUX1 / Fold change vs veh, CUX1 / RFU, TTC7A / Fold change vs veh, TTC7A / RFU, TMEM135 / Fold change vs veh, TMEM135 / RFU, DEPTOR / Fold change vs veh, DEPTOR / RFU, CPM / Fold change vs veh, CPM / RFU, DNAJB6 / Fold change vs veh, DNAJB6 / RFU, CACNA2D3 / Fold change vs veh, CACNA2D3 / RFU, DTX4 / Fold change vs veh, DTX4 / RFU, TFCP2 / Fold change vs veh, TFCP2 / RFU, GMCL1 /// GMCL1P1 / Fold change vs veh, GMCL1 /// GMCL1P1 / RFU, AEBP2 / Fold change vs veh, AEBP2 / RFU, SNHG1 /// SNORD22 /// SNORD25 /// SNORD26 /// SNORD27 /// SNORD28 /// SNORD29 /// SNORD31 / Fold change vs veh, SNHG1 /// SNORD22 /// SNORD25 /// SNORD26 /// SNORD27 /// SNORD28 /// SNORD29 /// SNORD31 / Fold change (Aza/veh), C12orf56 (ProbeSet 11735607_a_at) / Fold change (ACY-1035/veh), C12orf56 (ProbeSet 11735607_a_at) / Fold change (Aza/veh), FGFR1OP (ProbeSet 11751329_s_at) / Fold change (ACY-1035/veh), FGFR1OP (ProbeSet 11751329_s_at) / Fold change (Aza/veh), VPS36 (ProbeSet 11739960_a_at) / Fold change (ACY-1035/veh), VPS36 (ProbeSet 11739960_a_at) / RFU SYPL1 (11715823_x_at) / Fold change /veh SYPL1 (11715823_x_at) / RFU IGFBP7 (11715501_s_at) / Fold change /veh IGFBP7 (11715501_s_at) / RFU REEP3 (11722064_at) / Fold change /veh REEP3 (11722064_at) / RFU IGLL1 (11728026_x_at) / Fold change /veh IGLL1 (11728026_x_at): dose or concentration left out as unconfirmed. The conditions noted are these: MV-4-11 cells, 48 hours.

In the case of `Nc1ccc(-c2cccs2)cc1NC(=O)c1ccc2c(c1)cc(C1CC1)n2CCN1CCOCC1` [ACY-1035], the “RFU SRD5A1 (11742802_a_at)” value was determined as 49.09 RFU.
